This passage reports IC50 results from BindingDB's records for doi:10.1021/jm00100a018 (1992).

The nature of the assay: Concentration tested in vitro to inhibit PAF-induced maximum aggregation (PAF-Antagonistic activity) by 50%.

SMILES strings stand for the structures. Bounds are passed on as bounds.

By IC50 is commonly meant the concentration that gives 50% inhibition. High values mean lower potency, low ones higher potency. In turn, `COc1cc(CCC(=O)N2CCN(C(=O)c3cc(OC)c(OC)c(OC)c3)CC2)cc(OC)c1OC` yielded an IC50 of 73 µM.

In turn, `N#CC(c1cccnc1)N1CCN(C(=O)CNC(Cc2ccccc2)c2ccccc2)CC1` (stereo unspecified) returned an IC50 of 0.05 µM.

`N#CC(c1cccnc1)N1CCN(C(=O)CNCC(c2ccccc2)c2ccccc2)CC1` (stereo unspecified): the IC50 was found to be 0.22 µM. `N#CC(CN1CCN(C(=O)C(c2ccccc2)c2ccccc2)CC1)c1cccnc1` (stereo unspecified): the IC50 came out at 2.3 µM. In turn, `COc1cc(C(=O)N2CCN(C(=S)c3cccnc3)CC2)cc(OC)c1OC` registered an IC50 of 1.3 µM. This IC50 is about 1.8-fold lower than that of the compound before.

In the case of `CC(c1cccnc1)N1CCN(C(=O)C(c2ccccc2)c2ccccc2)CC1` (stereo unspecified), the IC50 turned out to be 1.2 µM. This IC50 and that of the compound before are within 1.5-fold of each other. `N#CC(c1cccc([N+](=O)[O-])c1)N1CCN(C(=O)CC(c2ccccc2)c2ccccc2)CC1` (stereo unspecified): inhibition was half-maximal at 11 µM (IC50). As to `CCCCCCCC(=O)N1CCN(C(C#N)c2cccnc2)CC1` (stereo unspecified), the IC50 turned out to be 0.92 µM.

On to `N#CC(c1cccnc1)N1CCN(CCNC(=O)C(c2ccccc2)c2ccccc2)CC1` (stereo unspecified), for which 0.036 µM corresponded to half-maximal inhibition (IC50). `N#CC(=C1CCN(C(=O)CC(c2ccccc2)c2ccccc2)CC1)c1cccnc1` registered an IC50 of 0.026 µM. This IC50 and that of the compound before are within 1.5-fold of each other. The compound `N#CC(c1cccnc1)N1CCN(C(=O)NC(c2ccccc2)c2ccccc2)CC1` (stereo unspecified) came in with an IC50 of 0.36 µM. Regarding `O=C(CC(c1ccccc1)c1ccccc1)N1CCN(Cc2cccnc2)CC1`, the IC50 is 0.52 µM. Regarding `O=C(c1cccnc1)N1CCN(C(=O)C(c2ccccc2)c2ccccc2)CC1`, the IC50 was determined as 23 µM. As to `N#CC1(Nc2cccnc2)CCN(C(=O)CNC(c2ccccc2)c2ccccc2)CC1`, 0.2 µM corresponded to half-maximal inhibition (IC50). In turn, `N#CC(c1cncs1)N1CCN(C(=O)CC(c2ccccc2)c2ccccc2)CC1` (stereo unspecified) registered an IC50 of 0.021 µM. `N#CC(c1cccnc1)N1CCN(C(=O)Cc2ccccc2)CC1` (stereo unspecified) gave an IC50 of 2.7 µM.

`COc1cc(CC(=O)N2CCN(C(C#N)c3cccnc3)CC2)cc(OC)c1OC` (stereo unspecified) yielded an IC50 of 0.46 µM. Compound `N#CC(c1cccnc1)C1CCN(C(=O)CNC(c2ccccc2)c2ccccc2)CC1` (stereo unspecified) came in with an IC50 of 0.024 µM. The result for `N#Cc1cccc(C(C#N)N2CCN(C(=O)CC(c3ccccc3)c3ccccc3)CC2)c1` (stereo unspecified) reads 7.4 µM; that for `N#CC(c1ccncc1)N1CCN(C(=O)CC(O)(c2ccccc2)c2ccccc2)CC1` (stereo unspecified), 0.0027 µM; that for `CC(C)(C)C(=O)N1CCN(C(C#N)c2cccnc2)CC1` (stereo unspecified), 5.2 µM.

For the compound `N#CC1(Nc2cccnc2)CCN(C(=O)CC(c2ccccc2)c2ccccc2)CC1`, the IC50 came out at 0.015 µM. In turn, `N#CC(c1cccnc1)N1CCN(C(=O)Cc2ccc3ccccc3c2)CC1` (stereo unspecified) returned an IC50 of 0.72 µM. Compared with the last compound, the IC50 is about 48-fold higher. In the case of `N#CC(c1cccc(C(F)(F)F)c1)N1CCN(C(=O)CC(c2ccccc2)c2ccccc2)CC1` (stereo unspecified), the IC50 turned out to be 9 µM.

`N#CC(c1cccnc1)N1CCN(C(=O)CCCc2ccccc2)CC1` (stereo unspecified) registered an IC50 of 0.26 µM. `CC(c1ccccc1)N(C)CC(=O)N1CCN(C(C#N)c2cccnc2)CC1` (stereo unspecified) yielded a concentration for half-maximal inhibition (IC50) of 0.24 µM.

Compound `N#CC(c1cccnc1)N1CCN(C(=O)C(CCc2ccccc2)c2ccccc2)CC1` (stereo unspecified) came in with an IC50 of 2.6 µM. Compound `N#CC(c1cccnc1)N1CCN(C(=O)Cc2cccc3ccccc23)CC1` (stereo unspecified) showed an IC50 of 0.076 µM. `O=C(C(c1ccccc1)c1ccccc1)N1CCN(Cc2cccnc2)CC1`: the IC50 came to 2.6 µM. With `N#CC(c1cccnc1)N1CCN(C(=O)C(Cc2ccccc2)c2ccccc2)CC1` (stereo unspecified) the figure was 0.23 µM.

`O=C(C(c1ccccc1)c1ccccc1)N1CC[N+]([O-])(Cc2cccnc2)CC1` had an IC50 of 44 µM.

`N#CC(c1cccnc1)N1CCN(C(=O)CNCCC(c2ccccc2)c2ccccc2)CC1` (stereo unspecified) came in with an IC50 of 0.086 µM. The result for `COc1cc(C(=O)N2CCN(C(=O)c3cc(OC)c(OC)c(OC)c3)CC2)cc(OC)c1OC` reads 9.4 µM; that for `N#CC(c1cccnc1)N1CCN(C(=O)C(c2ccccc2)c2ccccc2)CC1` (stereo unspecified), 0.01 µM.

With `N#CC(c1cccnc1)N1CCN(C(=O)CN(Cc2ccccc2)Cc2ccccc2)CC1` (stereo unspecified), the IC50 stood at 0.032 µM.

For `N#CC(c1cccnc1)N1CCN(C(=O)/C(=C/c2ccccc2)c2ccccc2)CC1` (stereo unspecified), the IC50 stood at 0.0075 µM. With `N#CC(c1cccnc1)N1CCN(CC(=O)NCCC(c2ccccc2)c2ccccc2)CC1` (stereo unspecified), the IC50 amounted to 0.24 µM. With `CN(CC(=O)N1CCN(C(C#N)c2cccnc2)CC1)C(c1ccccc1)c1ccccc1` (stereo unspecified) the figure was 0.06 µM; with `N#CC(c1ccncc1)N1CCN(C(=O)CNC(=O)C(c2ccccc2)c2ccccc2)CC1` (stereo unspecified), 0.68 µM. The result for `Cn1cccc1C(C#N)N1CCN(C(=O)CC(c2ccccc2)c2ccccc2)CC1` (stereo unspecified) reads 25 µM; that for `CN(CC(=O)N1CCN(C(C#N)c2cccnc2)CC1)c1ccccc1` (stereo unspecified), 2.8 µM; that for `CN(C)c1ccc(C(C#N)N2CCN(C(=O)CC(c3ccccc3)c3ccccc3)CC2)cc1` (stereo unspecified), 210 µM.

`Cn1ccc(C(C#N)N2CCN(C(=O)CC(c3ccccc3)c3ccccc3)CC2)c1` (stereo unspecified): the midpoint of inhibition, the IC50, lay at 2.6 µM. Compared with the last compound, the IC50 is about 81-fold lower. The result for `N#CC(c1cccnc1)C1CCN(C(=O)C(c2ccccc2)c2ccccc2)CC1` (stereo unspecified) reads 0.021 µM; that for `N#CC(c1cccnc1)N1CCN(C(=O)CNc2ccccc2)CC1` (stereo unspecified), 0.13 µM; that for `O=C(CC(c1ccccc1)c1ccccc1)N1CCN(C(=O)c2cc[n+]([O-])cc2)CC1`, 1.9 µM. With `NC(=O)C(c1cccnc1)N1CCN(C(=O)C(c2ccccc2)c2ccccc2)CC1` (stereo unspecified) the figure was 200 µM; with `COc1cc(C(=O)N2CCN(C(=O)c3cccnc3)CC2)cc(OC)c1OC`, 5.2 µM; with `N#CC(c1cccnc1)N1CCN(CCNC(=O)CC(c2ccccc2)c2ccccc2)CC1` (stereo unspecified), 5.5 µM.

The compound `N#CC(c1cccnc1)N1CCN(CCC(c2ccccc2)c2ccccc2)CC1` (stereo unspecified) came in with an IC50 of 0.63 µM. In turn, `CC(NCC(=O)N1CCN(C(C#N)c2cccnc2)CC1)c1ccccc1` (stereo unspecified) returned an IC50 of 0.036 µM. With `N#CC(c1cccnc1)N1CCN(C(=O)CN(Cc2ccccc2)c2ccccc2)CC1` (stereo unspecified) the figure was 0.024 µM; with `O=C(CC(c1ccccc1)c1ccccc1)N1CCN(C(=O)c2ccncc2)CC1`, 1.9 µM; with `CCCCC(=O)N1CCN(C(C#N)c2cccnc2)CC1` (stereo unspecified), 2.6 µM. `N#CC(c1cccc(Cl)c1)N1CCN(C(=O)CC(c2ccccc2)c2ccccc2)CC1` (stereo unspecified) yielded an IC50 of 21 µM. For the compound `N#CC(c1cccnc1)N1CCN(C(=S)C(c2ccccc2)c2ccccc2)CC1` (stereo unspecified), the IC50 turned out to be 0.023 µM. In turn, `N#CC(c1cccnc1)N1CCN(C(=O)/C=C/c2ccccc2)CC1` (stereo unspecified) returned an IC50 of 2.5 µM. The result for `Cn1cc(C(C#N)N2CCN(C(=O)CC(c3ccccc3)c3ccccc3)CC2)c2ccccc21` (stereo unspecified) reads 5.7 µM. With `CC(C#N)(c1cccnc1)N1CCN(C(=O)C(c2ccccc2)c2ccccc2)CC1` (stereo unspecified) the figure was 0.24 µM; with `N#CC(c1ccncc1)N1CCN(CCNC(c2ccccc2)c2ccccc2)CC1` (stereo unspecified), 0.036 µM; with `COc1cc(C(=O)N2CCN(C(C#N)c3ccccn3)CC2)cc(OC)c1OC` (stereo unspecified), 44 µM. With `N#CC(c1cccnc1)N1CCN(C(=O)CNc2cccc3ccccc23)CC1` (stereo unspecified) the figure was 2.6 µM.

Turning to `CCCCCCCCCCCCCCCC(=O)N1CCN(C(C#N)c2cccnc2)CC1` (stereo unspecified), the IC50 is above 200 µM. `N#CC(c1ccncc1)N1CCN(C(=O)CCNC(c2ccccc2)c2ccccc2)CC1` (stereo unspecified) gave an IC50 of 0.055 µM. This counts as double-digit nanomolar. With `N#CC(c1cccnc1)N1CCN(C(=O)Cc2c[nH]c3ccccc23)CC1` (stereo unspecified) the figure was 0.45 µM; with `N#CC(c1cccnc1)N1CCN(C(=O)CNCCCc2ccccc2)CC1` (stereo unspecified), 0.53 µM.
